{"source": "patent US8858917B2", "about": "“Methods for limiting spread of pulmonary infections” (priority 2002, dated 2014)", "key": {"[1]": {"tested_on": "HSV-1 and HSV-2 strains", "details": "cultured cells; cited from earlier work"}, "[2]": {"tested_on": "HIV-1 (strain NL4-3)", "details": "pretreatment of virus; cited from earlier work"}, "[3]": {"test": "Dispersion / precipitation in ethanol", "format": "physicochemical", "details": "room temperature", "protocol": "DLS can be used to measure the size and size distribution of the ethanol solutions. A suitable apparatus is an ALV DLS/SLS-5000 spectrometer/goniometer (ALV-Laser GmbH, Langen, Germany). The light source for the experiments is an Argon Ion laser of wavelength 514.5 nm (Coherent, Calif.). Light scattered by the sample is detected at an angle of 90° from the transmitted beam, where the effects of reflection are minimized. The sample cell is placed in a toluene bath maintained at a temperature of 25° C."}, "[4]": {"tested_on": "viruses susceptible to its action", "details": "medium containing 5% fetal calf serum (FCS); cited from earlier work"}, "[5]": {"tested_on": "NIH 3T3 fibroblasts", "details": "30% ethanol in 10% FBS DMEM for 10 seconds"}}, "note": "Numbered stars: 1 amine (or outer) side, 2 acyl side, 3 side chain; on linkers, the order of the positions; unused ones are H or OH. Bridge positions count the residues as written; N and C are the ends. Square brackets hold non-standard residues; d marks the D form. Peptide text beside a SMILES is read from it. X1 = CC(C)CCCCCCCCC[C@H](CC(=O)[*:1])O[*:2]", "data": [{"compound": "CCCCCCCCCCCCOS(=O)(=O)[O-].[Na+]", "note": "[SLS, sodium lauryl sulfate]", "values": [{"measurement": "inhibition of infectivities of various HSV-1 and HSV-2 strains", "setting": "[1]", "result": "potent inhibitors"}, {"measurement": "infectivity of HIV-1 to 1G5 cells after pretreatment", "setting": "[2]", "result": "reduced its infectivity"}]}, {"compound": "CCCCCCCCCCCCCCCC(=O)OC[C@H](COP(=O)([O-])OCC[N+](C)(C)C)OC(=O)CCCCCCCCCCCCCCC", "note": "[DPPC, dipalmitoyl phosphatidyl choline]", "values": [{"measurement": "concentration successfully dispersed in ethanol before sedimentation of aggregates", "setting": "[3]", "result": "up to 100 mg/mL"}]}, {"compound": "CC(C)CCCCCCCCC[C@@H]1CC(=O)N[C@@H](CCC(=O)O)C(=O)N[C@@H](CC(C)C)C(=O)N[C@H](CC(C)C)C(=O)N[C@@H](C(C)C)C(=O)N[C@@H](CC(=O)O)C(=O)N[C@H](CC(C)C)C(=O)N[C@@H](CC(C)C)C(=O)O1", "note": "[surfactin] (EL[dL]VD[dL]L; linker N-C via X1)", "values": [{"measurement": "concentration at which active", "setting": "[4]", "result": 25, "unit": "µM"}]}, {"compound": "CCO", "note": "[ethanol]", "values": [{"measurement": "cell death after exposure (CMFDA staining)", "setting": "[5]", "result": "insufficient to cause cell death"}]}]}
